According to patent publication US8993542B2, “Methods of treating viral infections” (priority 2008, dated 2015):
pIC50: −log10 of the molar value.

Columns and labels:
HIV-1 = conditions: monotherapy in naïve patients (Louie et al.); cited from earlier work
HIV = experiment: microbe, parasite or virus in culture; format: cell-based
HIV-1IIIB = experiment: Two-drug combination antiviral assay in CEM cells (CPE), MacSynergy II; format: cell-based; conditions: in combination with CMX157, CEM-SS cells, 95% confidence
HIV-1Ba-L = tested on: HIV-1Ba-L
Procedure: The anti-HIV-1 activity of CMX157 is evaluated in two-drug combination studies with twenty-four different FDA-approved anti-HIV inhibitors. Each two-drug combination is tested three times in CEM T-lymphocytic cells or MAGI-CCR5 cells acutely infected with the laboratory-adapted strain HIV-1IIIB or HIV-1Ba-L, respectively. Viral growth/inhibition is evaluated by measuring virus-induced cytopathic effects (CPE) in CEM cells or by β-galactosidase reporter gene induction in MAGI-CCR5 cells at the experimental endpoint. The cytotoxicity of each two-drug combination is also evaluated in parallel with the antiviral evaluations. The concentrations of CMX157 used in these evaluations are selected in order to test a broad range of concentrations and to provide as complete a dose response curve as possible under the limitations of eight total concentrations. […] The “positive antagonism control” of d4T (stavudine) in combination with RBV was tested in parallel with each of the assays that were performed. Analysis of drug interactions for each of the two-drug combinations is performed using the Prichard and Shipman MacSynergy II three-dimensional model for statistical evaluation of combination assays.

[1] = in combination with CMX157, MAGI-CCR5 cells, 95% confidence

In the case of `CC(C)OC(=O)OCOP(=O)(CO[C@H](C)Cn1cnc2c(N)ncnc21)OCOC(=O)OC(C)C.O=C(O)/C=C/C(=O)O` [TDF, 2,4,6,8-Tetraoxa-5-phosphanonanedioic acid, 5-[[(1R)-2-(6-amino-9H-purin-9-yl)-1-methylethoxy]methyl]-, bis(1-methylethyl) ester, 5-oxide, (2E)-2-butenedioate (1:1)], the viral load response (HIV-1) is given as −1.5 log.

Molecule `OC[C@@H]1CC[C@H](n2cnc3c(O)ncnc32)O1` [ddI, 2′,3′-dideoxyinosine] has a pIC50 (HIV; Human immunodeficiency virus 1, PANEL 1, WT) of 5.26, a pIC50 (HIV; Human immunodeficiency virus 1, PANEL 2, WT) of 5.25 and a pIC50 (HIV; Human immunodeficiency virus 1, PANEL 3, 6 TAMs, no 184) of 5.06. For the same molecule, the pIC50 (HIV; Human immunodeficiency virus 1, PANEL 6, 6 TAMs + 184) was 4.95, the pIC50 (HIV; Human immunodeficiency virus 1, PANEL 7, 184V) was 5.12 and the pIC50 (HIV; Human immunodeficiency virus 1, PANEL 9, 69ins, no 184) was 4.65. The pIC50 (HIV; Human immunodeficiency virus 1, PANEL 12, 69ins + 184) was 4.61, the pIC50 (HIV; Human immunodeficiency virus 1, PANEL 14, 65R, no 184) was 5.04 and the pIC50 (HIV; Human immunodeficiency virus 1, PANEL 15, 65R + 184V) was 4.84. The pIC50 (HIV; Human immunodeficiency virus 1, PANEL 17, L74V) was 5.05, the pIC50 (HIV; Human immunodeficiency virus 1, PANEL 19, L74V + M184V) was 4.96 and the pIC50 (HIV; Human immunodeficiency virus 1, PANEL 26, 151M, no 184) was 4.20. It also gave a pIC50 (HIV; Human immunodeficiency virus 1, PANEL 28, 151M + 184) of 4.24, a pIC50 (HIV; Human immunodeficiency virus 1, PANEL 29, L74V − SDM) of 5.09 and a pIC50 (HIV; Human immunodeficiency virus 1, PANEL 30, M184V − SDM) of 5.17. The pIC50 (HIV; Human immunodeficiency virus 1, PANEL 31, K65R − SDM) was 4.96, the pIC50 (HIV; Human immunodeficiency virus 1, PANEL 33, T215Y) was 5.20 and the pIC50 (HIV; Human immunodeficiency virus 1, PANEL 34, T215Y + M184V) was 5.10. It also gave a pIC50 (HIV; Human immunodeficiency virus 1, PANEL 35, M41L + T215Y) of 5.20, a pIC50 (HIV; Human immunodeficiency virus 1, PANEL 37, M41L + T215Y + M184V) of 4.99 and a pIC50 (HIV; Human immunodeficiency virus 1, PANEL 38, M41L + L210W + T215Y) of 5.12. The pIC50 (HIV; Human immunodeficiency virus 1, PANEL 39, M41L + L210W + T215Y) was 5.23, the pIC50 (HIV; Human immunodeficiency virus 1, PANEL 40, M41L + L210W + T215Y + M184V) was 5.09 and the pIC50 (HIV; Human immunodeficiency virus 1, PANEL 41, M41L + L210W + T215Y + M184V) was 5.06. The pIC50 (HIV; Human immunodeficiency virus 1, PANEL 42, D67N + K70R) was 5.18, the pIC50 (HIV; Human immunodeficiency virus 1, PANEL 44, D67N + K70R + T215F + K219E + M184V) was 5.06 and the pIC50 (HIV; Human immunodeficiency virus 1, PANEL 45, L210W + T215Y) was 5.26. For the same molecule, the pIC50 (HIV; Human immunodeficiency virus 1, PANEL 46, D67N + K70E) was 5.11, the pIC50 (HIV; Human immunodeficiency virus 1, PANEL 47, D67N + K70E + M184V) was 5.14 and the pIC50 (HIV; Human immunodeficiency virus 1, PANEL 48, K70E + M184V) was 5.00. The “IC50 Fold Change” value (HIV; PANEL 1, WT) was 1.01, the “IC50 Fold Change” value (HIV; PANEL 2, WT) was 1.01 and the “IC50 Fold Change” value (HIV; PANEL 3, 6 TAMs, no 184) was 1.59. The “IC50 Fold Change” value (HIV; PANEL 6, 6 TAMs + 184) was 2.06, the “IC50 Fold Change” value (HIV; PANEL 7, 184V) was 1.38 and the “IC50 Fold Change” value (HIV; PANEL 9, 69ins, no 184) was 4.04. For the same molecule, the “IC50 Fold Change” value (HIV; PANEL 12, 69ins + 184) was 4.43, the “IC50 Fold Change” value (HIV; PANEL 14, 65R, no 184) was 1.67 and the “IC50 Fold Change” value (HIV; PANEL 15, 65R + 184V) was 2.61. For the same molecule, the “IC50 Fold Change” value (HIV; PANEL 17, L74V) was 1.63, the “IC50 Fold Change” value (HIV; PANEL 19, L74V + M184V) was 2.01 and the “IC50 Fold Change” value (HIV; PANEL 26, 151M, no 184) was 12.00. For the same molecule, the “IC50 Fold Change” value (HIV; PANEL 28, 151M + 184) was 11.00, the “IC50 Fold Change” value (HIV; PANEL 29, L74V − SDM) was 1.48 and the “IC50 Fold Change” value (HIV; PANEL 30, M184V − SDM) was 1.23. The “IC50 Fold Change” value (HIV; PANEL 31, K65R − SDM) was 2.00, the “IC50 Fold Change” value (HIV; PANEL 33, T215Y) was 1.14 and the “IC50 Fold Change” value (HIV; PANEL 34, T215Y + M184V) was 1.43. The “IC50 Fold Change” value (HIV; PANEL 35, M41L + T215Y) was 1.14, the “IC50 Fold Change” value (HIV; PANEL 37, M41L + T215Y + M184V) was 1.84 and the “IC50 Fold Change” value (HIV; PANEL 38, M41L + L210W + T215Y) was 1.36. The “IC50 Fold Change” value (HIV; PANEL 39, M41L + L210W + T215Y) was 1.07, the “IC50 Fold Change” value (HIV; PANEL 40, M41L + L210W + T215Y + M184V) was 1.49 and the “IC50 Fold Change” value (HIV; PANEL 41, M41L + L210W + T215Y + M184V) was 1.57. For the same molecule, the “IC50 Fold Change” value (HIV; PANEL 42, D67N + K70R) was 1.19, the “IC50 Fold Change” value (HIV; PANEL 44, D67N + K70R + T215F + K219E + M184V) was 1.57 and the “IC50 Fold Change” value (HIV; PANEL 45, L210W + T215Y) was 1.00. For the same molecule, the “IC50 Fold Change” value (HIV; PANEL 46, D67N + K70E) was 1.41, the “IC50 Fold Change” value (HIV; PANEL 47, D67N + K70E + M184V) was 1.32 and the “IC50 Fold Change” value (HIV; PANEL 48, K70E + M184V) was 1.80. For the same molecule, the “Antagonism Volume, Result 1” value (HIV-1IIIB) was −1.01 nM^2 %, μM^2 % or nMμM % and the “Synergy Volume, Result 1” value (HIV-1IIIB) was 3.38 nM^2 %, μM^2 % or nMμM %.

With maraviroc [Maraviroc (MVC)] the “Antagonism Volume, Result 1” value (HIV-1Ba-L; [1]) was −3.82 nM^2 %, μM^2 % or nMμM %, the “Antagonism Volume, Result 2” value (HIV-1Ba-L; [1]) was −3.12 nM^2 %, μM^2 % or nMμM % and the “Antagonism Volume, Result 3” value (HIV-1Ba-L; [1]) was 0 nM^2 %, μM^2 % or nMμM %. For the same molecule, the “Mean Antagonism Volume (n = 3)” value (HIV-1Ba-L; [1]) was −2.31 nM^2 %, μM^2 % or nMμM %, the “Mean Synergy Volume (n = 3)” value (HIV-1Ba-L; [1]) was 85.3 nM^2 %, μM^2 % or nMμM % and the “Synergy Volume, Result 1” value (HIV-1Ba-L; [1]) was 145 nM^2 %, μM^2 % or nMμM %. For the same molecule, the “Synergy Volume, Result 2” value (HIV-1Ba-L; [1]) was 14.1 nM^2 %, μM^2 % or nMμM %, the “Synergy Volume, Result 3” value (HIV-1Ba-L; [1]) was 96.6 nM^2 %, μM^2 % or nMμM % and the “Interpretation of Antiviral Results (MacSynergy)” value (HIV-1Ba-L; two-drug combination (with CMX157; control d4T/RBV), MAGI-CCR5 cells) was “slightly synergistic”.
